Assay results taken from article PMC8228600, “Design, Synthesis, In Vitro and In Vivo Evaluation of Heterobivalent SiFAlin-Modified Peptidic Radioligands Targeting Both Integrin αvβ3 and the MC1 Receptor—Suitable for the Specific Visualization of Melanomas?” (Pharmaceuticals, 2021).
Where two headings read alike, the source gives them in different places.

Experiment: Ex vivo biodistribution in tumor-bearing nude mice (non-tumor tissues)
Settings: male, Balb/cAnNRj-Foxn1nu/nu (nude), mouse, iv, total radioactivity, ex vivo after PET/CT scan, i.v., n = 3
Experimental: For the evaluation of the in vivo pharmacokinetics, the two most promising HBPLs—[^18F]2 with the highest affinity to both target receptors and [^18F]4 with the highest hydrophilicity and still reasonable binding affinities—were selected. For PET/CT imaging, 6-week-old male nude mice (Balb/cAnNRj-Foxn1^nu/nu) were subcutaneously injected with 5 × 10^5 B16F10 cells into the right flank and 2.0–2.5 × 10^6 U87MG cells into the left flank to generate the respective receptor-positive tumors. When the tumors reached a sufficient size for imaging, each mouse was administered 4.15 ± 2.28 MBq of [^18F]2 or 3.95 ± 2.06 MBq of [^18F]4 via the lateral tail vein under isoflurane anesthesia. To determine the receptor specificity of both peptide parts of the labeled HBPLs and their relative contribution to overall tumor uptake, blocking experiments were also performed. […] After i.v. injection of the tracers, a dynamic PET scan, followed by a CT scan, was performed. The resulting PET/CT images and time–activity curves (TACs) are depicted in Figure 6, Figure 7 and Figure 8. After completion of the diagnostic scans, the mice were sacrificed, their organs (blood, spleen, liver, kidney, pancreas, lung, heart, brain, bone, muscle, tail, tumors, stomach, colon and small intestine) were collected and measured in a γ-counter for ex vivo biodistribution (see Supplementary Materials Table S1 for detailed results).
Each male nude mouse (six weeks old) was injected subcutaneously with 5 × 10^5 B16F10 cells into the right flank and 2.0–2.5 × 10^6 U87MG cells into the left flank. The health status and tumor growth of the mice were monitored regularly until the animals could be examined after 15–21 days, depending on the tumor size. For the in vivo experiments, the ^18F-radiolabeled compound was diluted in 0.9% saline to give a final EtOH concentration of <10%. Each mouse was injected with 4.15 ± 2.28 MBq of [^18F]2 or 3.95 ± 2.06 MBq of [^18F]4 via the lateral tail vein under isoflurane anesthesia. […] Each ^18F-labeled compound was studied with or without blocking in at least three mice. Mice were measured under isoflurane anesthesia in a small PET/SPECT/CT animal imaging system. First, a dynamic PET scan was performed over 90 min and the scan was framed in 29 timeframes (10 × 1 min, 10 × 2 min, 6 × 5 min, 3 × 10 min). Images were reconstructed using 12 iterations, a maximum likelihood expectation maximization (MLEM) algorithm including corrections for scattered radiation and decay and a voxel size of 0.5 mm. All PET scans were immediately followed by CT acquisition at a voltage of 45 kV and a current of 400 μA. The images were reconstructed using the filtered back projection (FBP) algorithm with a voxel size of 250 μm. The analysis of the data, including the generation of TACs of the kidneys, liver and tumors and the MIPs, was performed via PMOD (v3.8). For ex vivo biodistribution, the mice were sacrificed directly after the PET/CT scan. Organs (blood, spleen, liver, kidneys, pancreas, lungs, heart, brain, bone, muscle, tail, tumors, stomach, colon and small intestine) were collected, weighed and their radioactivity measured in a γ-counter. The percentage injected dose per gram (% ID/g) of each tissue was calculated from the determined values, organ weights, reference values and injected activity.

CCCC[C@H](NC(=O)CNC(=O)CNC(=O)CCOCCOCCOCCOCCOCCOCCOCCOCCOCCC(=O)NCCCN(CCCNC(=O)CCOCCOCCOCCOCCOCCOCCOCCOCCOCCC(=O)NCCCC[C@@H]1NC(=O)[C@@H](Cc2ccccc2)NC(=O)[C@H](CC(=O)O)NC(=O)CNC(=O)[C@H](CCCNC(=N)N)NC1=O)CC(=O)N[C@@H](CCCCNC(=O)CCC[N+](C)(C)Cc1ccc([Si](F)(C(C)(C)C)C(C)(C)C)cc1)C(N)=O)C(=O)N[C@H]1CC(=O)NCCCC[C@@H](C(N)=O)NC(=O)[C@H](Cc2c[nH]c3ccccc23)NC(=O)[C@H](CCCNC(=N)N)NC(=O)[C@@H](Cc2ccccc2)NC(=O)[C@H](Cc2c[nH]cn2)NC1=O [[^18F]4]
tissue uptake at 1.5 h (blood, NDP blocking (20 μg coinjected), read-out: ID/g, blood): 2.07 ± 0.94 %ID/g
tissue uptake at 1.5 h (blood, c(RGDyK) blocking (200 μg coinjected), read-out: ID/g, blood): 0.83 ± 0.06 %ID/g
tissue uptake at 1.5 h (blood, double blocking (NDP + c(RGDyK)), read-out: ID/g, blood): 1 ± 0.15 %ID/g
tissue uptake at 1.5 h (blood, without blocking, read-out: ID/g, blood): 0.59 ± 0.08 %ID/g
tissue uptake at 1.5 h (bone, NDP blocking (20 μg coinjected), read-out: ID/g, bone): 4.61 ± 0.71 %ID/g
tissue uptake at 1.5 h (bone, c(RGDyK) blocking (200 μg coinjected), read-out: ID/g, bone): 4.99 ± 0.71 %ID/g
tissue uptake at 1.5 h (bone, double blocking (NDP + c(RGDyK)), read-out: ID/g, bone): 2.99 ± 0.78 %ID/g
tissue uptake at 1.5 h (bone, without blocking, read-out: ID/g, bone): 18.1 ± 6.02 %ID/g
tissue uptake at 1.5 h (brain, NDP blocking (20 μg coinjected), read-out: ID/g, brain): 0.19 ± 0.07 %ID/g
tissue uptake at 1.5 h (brain, c(RGDyK) blocking (200 μg coinjected), read-out: ID/g, brain): 0.07 ± 0.02 %ID/g
tissue uptake at 1.5 h (brain, double blocking (NDP + c(RGDyK)), read-out: ID/g, brain): 0.07 ± 0.01 %ID/g
tissue uptake at 1.5 h (brain, without blocking, read-out: ID/g, brain): 0.1 ± 0.03 %ID/g
tissue uptake (colon, NDP blocking (20 μg coinjected), read-out: ID/g, colon): 0.96 ± 0.13 %ID/g
tissue uptake (colon, c(RGDyK) blocking (200 μg coinjected), read-out: ID/g, colon): 0.8 ± 0.32 %ID/g
tissue uptake (colon, double blocking (NDP + c(RGDyK)), read-out: ID/g, colon): 0.42 ± 0.05 %ID/g
tissue uptake (colon, without blocking, read-out: ID/g, colon): 0.77 ± 0.26 %ID/g
tissue uptake at 1.5 h (heart, NDP blocking (20 μg coinjected), read-out: ID/g, heart): 0.73 ± 0.06 %ID/g
tissue uptake at 1.5 h (heart, c(RGDyK) blocking (200 μg coinjected), read-out: ID/g, heart): 1.51 ± 0.57 %ID/g
tissue uptake at 1.5 h (heart, double blocking (NDP + c(RGDyK)), read-out: ID/g, heart): 0.52 ± 0.06 %ID/g
tissue uptake at 1.5 h (heart, without blocking, read-out: ID/g, heart): 0.56 ± 0.19 %ID/g
tissue uptake at 1.5 h (kidneys, NDP blocking (20 μg coinjected), read-out: ID/g, kidneys): 23.1 ± 4.97 %ID/g
tissue uptake at 1.5 h (kidneys, c(RGDyK) blocking (200 μg coinjected), read-out: ID/g, kidneys): 21.4 ± 4.04 %ID/g
tissue uptake at 1.5 h (kidneys, double blocking (NDP + c(RGDyK)), read-out: ID/g, kidneys): 26.5 ± 6.59 %ID/g
tissue uptake at 1.5 h (kidneys, without blocking, read-out: ID/g, kidneys): 7.72 ± 2.57 %ID/g
tissue uptake at 1.5 h (liver, NDP blocking (20 μg coinjected), read-out: ID/g, liver): 5.16 ± 0.56 %ID/g
tissue uptake at 1.5 h (liver, c(RGDyK) blocking (200 μg coinjected), read-out: ID/g, liver): 10.4 ± 3.65 %ID/g
tissue uptake at 1.5 h (liver, double blocking (NDP + c(RGDyK)), read-out: ID/g, liver): 4.04 ± 1.06 %ID/g
tissue uptake (liver, without blocking, read-out: ID/g, liver): 8.3 ± 2.77 %ID/g
tissue uptake at 1.5 h (lung, NDP blocking (20 μg coinjected), read-out: ID/g, lung): 1.25 ± 0.06 %ID/g
tissue uptake at 1.5 h (lung, c(RGDyK) blocking (200 μg coinjected), read-out: ID/g, lung): 2.75 ± 1.04 %ID/g
tissue uptake at 1.5 h (lung, double blocking (NDP + c(RGDyK)), read-out: ID/g, lung): 0.88 ± 0.14 %ID/g
tissue uptake at 1.5 h (lung, without blocking, read-out: ID/g, lung): 3.45 ± 1.15 %ID/g
tissue uptake at 1.5 h (muscle, NDP blocking (20 μg coinjected), read-out: ID/g, muscle): 0.63 ± 0.07 %ID/g
tissue uptake at 1.5 h (muscle, c(RGDyK) blocking (200 μg coinjected), read-out: ID/g, muscle): 1.62 ± 0.42 %ID/g
